“Also recorded” adds a separate entry of the source.
What was measured:
washed human platelets [1] = assay: ATP secretion (Chrono-lume) after thrombin stimulation; assay type: cell-based; conditions: 10 µM S-G04 or 20 µM R-G04; thrombin 0.1 U/mL
Description: (§1) (A–D) Washed human platelets were pre-incubated with 10 µM S-G04 or 20 µM R-G04 for 2 min before being stimulated with Arachidonic Acid (AA), U46619, ADP, or Thrombin. The % platelet aggregation was measured 5 min after agonist stimulation. (E) Washed human platelets were pre-incubated with 10 µM S-G04 or 20 µM R-G04 for 2 min and with Chrono-lume® for 30 s at 37 °C before being stimulated with 0.1 U/mL Thrombin. […] TxB2 formation was determined using a TxB2 ELISA kit. The differences among DMSO, R-G04, and S-G04 were analyzed using t-test, and the results are shown as means ± SDs of three independent experiments. (* p < 0.05, ** p < 0.01, *** p < 0.001, and **** p < 0.0001).
The in vitro antiplatelet activity of the compounds was assayed on washed human platelets using light transmission aggregometry. Platelet aggregation was performed using a 4-channel Lumi-aggregometer (Chronolog, PA, USA) at 37 °C and stirring speed of 900 rpm. […] The reactions were allowed to proceed for at least 4 min, and the results of platelet aggregation and ATP secretion were determined using Aggrolink software. Platelet aggregation was expressed as the maximum change in the light transmission, where the 100% value corresponded to treatment with the agonist alone. Compounds were evaluated in triplicate at nine compound concentrations ranging from 50 µM to 1 µM. […]

washed human platelets [2] = assay: Lactate dehydrogenase (LDH) leakage cytotoxicity assay; assay type: cell-based; conditions: 50 µM; compared with positive control Triton X-100
Description: The cytotoxicity of the active analogs was determined with the lactate dehydrogenase (LDH) leakage assay to ensure that platelet inhibition was a consequence of pharmacologic inhibition and not cytotoxicity. LDH is a stable cytosolic marker for membrane perturbation and is present in many cell types, including platelets.
Compound cytotoxicity was assessed using LDH Cytotoxicity Assay Kit (No. 601170; Cayman Chemical, MI) as previously described. Washed human platelets (2.5 × 10^8/mL) were incubated at 37 °C for 10 min with the highest concentration of compounds (50 µM for R-G04 and S-G04, and 20 µM for Rhosin analogs) or the vehicle, dimethyl sulfoxide (DMSO) 0.1% or 10% Triton X-100, which served as the positive control. The platelets were centrifuged at 800× g for 8 min at 4 °C, and 100 µL of the supernatant was mixed with 100 µL of LDH reaction solution in a 96-well plate. The plate was incubated at 37 °C for 10 min under constant orbital shaking before measurement of the absorbance at 490 nm in a plate reader (BioTek Synergy LX multimode reader; Santa Clara, CA, USA).

myosin light chain (MLC) = assay: Phosphorylation of myosin light chain (p-MLC), Western blot in collagen-stimulated platelets; assay type: cell-based, human; conditions: different concentrations of R-G04 or S-G04; collagen 1 µg/mL
Description: (A,B) Washed human platelets were incubated with collagen (1 µg/mL) for 4 min, and the levels of RhoA-GTP formation were quantified with a GST-Rhotekin effector pull-down assay. The platelets were pre-incubated with 20 µM UC-177618, UC-177619, UC-177628, UC-177629, […], or […] for 2 min before being stimulated with collagen. The addition of ice-cold lysis buffer terminated the reaction. […] Relative amounts of the GTP-bound form of RhoA were quantified with densitometry measurements of total RhoA (T-RhoA) and normalized to untreated platelets. […] The samples were processed for Western blotting and probed for MLC and p-MLC, and phosphorylation was quantified by measuring the densitometry of total MLC (T-MLC). The differences between DMSO- and Rhosin-related compounds were analyzed with t-test, and the results are shown as means ± SDs of three independent experiments. […]
A volume of 250 µL of washed human platelets (2.5 × 10^8/mL) was pre-warmed to 37 °C along with the compounds or DMSO (0.1%) for 2 min before being stimulated with collagen (1 µg/mL) for 4 min. The reactions were terminated by adding 4x Laemmli buffer, and phosphorylated MLC protein was detected with Western blotting as previously reported. Phosphorylation was quantified by measuring the densitometry.

washed human platelets [3] = assay: Thromboxane B2 ELISA assay; assay type: cell-based; conditions: different concentrations; thrombin stimulation; Indomethacin 20 µM as comparator
Description: as §1
The level of TxB2 was measured with an enzyme immunoassay kit (No. 501020; Cayman Chemical, Ann Arbor, MI, USA) as previously described. […] The reactions were terminated by adding 250 µL of HEPES Tyrode’s buffer (pH 7.4) containing 2 mM EDTA. The platelets were centrifuged for 2 min, and the level of TxB2 in the supernatant was measured with the ELISA kit according to the manufacturer’s instructions.

`N[C@H](Cc1c[nH]c2ccccc12)C(=O)N/N=C/c1ccc2nccnc2c1` [R-G04] was tested, and the ATP secretion (washed human platelets [1]) was “failed to have the same inhibitory effect”, the “cytotoxicity, LDH assay” value (washed human platelets [2]) was “neither R-G04 nor S-G04 induced significant human platelet cytolysis” and the “phosphorylation of the MLC” value (myosin light chain (MLC)) was “inhibited the downstream phosphorylation of the MLC”. The “generation of TxA2, measured as thromboxane B2 (TxB2)” value (washed human platelets [3]) was “dose-dependent inhibition”.

With `N[C@@H](Cc1c[nH]c2ccccc12)C(=O)N/N=C/c1ccc2nccnc2c1` [S-G04] the ATP secretion (washed human platelets [1]) was “inhibited ATP secretion”, the “cytotoxicity, LDH assay” value (washed human platelets [2]) was “neither R-G04 nor S-G04 induced significant human platelet cytolysis” and the “phosphorylation of the MLC” value (myosin light chain (MLC)) was “inhibited the downstream phosphorylation of the MLC”. The “generation of TxA2, measured as thromboxane B2 (TxB2)” value (washed human platelets [3]) was “dose-dependent inhibition; also recorded: comparable to that of Indomethacin”.
